Assay results taken from patent publication US20050101595A1, “N-containing cycloalkyl-substituted amino-thiazole derivatives and pharmaceutical compositions for inhibiting cell proliferation and methods for their use” (PFIZER INC., priority 2003, published 2005).
Counter-ions that a name gives are not always drawn. Like-named read-outs stand apart in the source and are kept apart here.

Experiments:
CDK2/Cyclin A = CDK2/Cyclin A (Homo sapiens, UniProt P24941); test: Inhibition of CDK2/Cyclin A Retinoblastoma Kinase Activity; format: biochemical; conditions: for Ki: apparent Ki, CDK2/proteolyzed cyclin A, Rb fragment substrate, 25 μM ATP; for CDK2 % Inhibition At 0.03 μM: 0.03 μM compound, Table 2
Summary of the method: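 Human CDK2, baculovirus/insect-cell expressed, complexed with proteolyzed cyclin A (10 nM or 19 nM CDK2) phosphorylates an Rb fragment with 25 μM [32P/33P]ATP at pH 7.4, 30° C, for 60 or 75 minutes under initial-rate conditions. Filter-captured radioactivity is read by phosphorimager; apparent Ki from competitive-inhibition fits.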

[1] = target: human CDK4 and genetically truncated (1-264) cyclin D3 (Homo sapiens, UniProt P11802); test: Inhibition of CDK4/Cyclin D Retinoblastoma Kinase Activity; format: biochemical; conditions: for Ki: apparent Ki, CDK4/truncated cyclin D3, Rb fragment substrate, 25 μM ATP
Summary of the method: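 Read-out: 32P/33P incorporation into Rb fragment (386-928) captured on nitrocellulose, phosphorimager. Enzyme 5 nM CDK4/cyclin D3(1-264) from insect cells; ATP 25 μM, pH 7.4, 30 °C, 20 min (60 min for tight binders). Ki from competitive fits.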

HCT-116 cell line = test: Inhibition of cell growth, tetrazolium salt (MTT) assay; format: cell-based; conditions: for HCT-116 % Inhibition at 0.1 μM / HCT-116 5 Inhibition at 0.25 μM: HCT-116 cells; for IC50: Homo sapiens, HCT-116, 120 h, MTT, three to five days, read-out: HCT-116 IC50; for HCT-116 % Inhibition at 0.25 μM: 0.25 μM compound, Table 2
Summary of the method: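 Growth inhibition is scored relative to cells receiving only 0.5% (v/v) DMSO. Plated cells rest 4 h, then take compound for three to five days at 37° C; MTT reduction to formazan is read at 540 nm.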

Chain of human CDK4 and genetically truncated (1-264) cyclin D3 (P11802 whole entry, the tested form may be a part): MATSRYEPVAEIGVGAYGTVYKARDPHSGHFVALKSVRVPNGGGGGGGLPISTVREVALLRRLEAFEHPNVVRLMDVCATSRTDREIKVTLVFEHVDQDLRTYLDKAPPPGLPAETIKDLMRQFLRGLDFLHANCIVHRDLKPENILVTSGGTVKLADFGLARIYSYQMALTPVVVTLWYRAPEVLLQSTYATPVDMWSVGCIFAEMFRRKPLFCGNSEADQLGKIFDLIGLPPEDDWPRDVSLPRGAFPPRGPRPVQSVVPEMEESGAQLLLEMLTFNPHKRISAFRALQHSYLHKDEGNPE
Chain of human CDK4 and genetically truncated (1-264) cyclin D3 (P30281 1-264 partner): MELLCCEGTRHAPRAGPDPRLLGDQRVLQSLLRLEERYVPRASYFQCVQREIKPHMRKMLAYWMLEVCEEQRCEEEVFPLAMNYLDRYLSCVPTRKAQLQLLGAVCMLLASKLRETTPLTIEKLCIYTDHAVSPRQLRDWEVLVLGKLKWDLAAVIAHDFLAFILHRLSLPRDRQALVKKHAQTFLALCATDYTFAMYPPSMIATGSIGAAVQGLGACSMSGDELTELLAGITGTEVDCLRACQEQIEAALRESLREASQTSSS

| CDK2 % Inhibition at 0.03 μM (CDK2/Cyclin A) | CDK4 % Inhibition at 0.03 μM ([1]; at 0.03 μM) | Ki (CDK2/Cyclin A) | Ki [1] | IC50 (HCT-116 cell line; first HCT-116 column (c4)) | IC50 (HCT-116 cell line; second HCT-116 column (c5)) | CDK2 % Inhibition At 0.03 μM (CDK2/Cyclin A) | CDK4 % Inhibition at 0.03 μM ([1]; 0.03 μM compound, Table 2) | Compound | HCT-116 % Inhibition at 0.1 μM (HCT-116 cell line) | HCT-116 5 Inhibition at 0.25 μM (HCT-116 cell line) | HCT-116 % Inhibition at 0.25 μM (HCT-116 cell line) |
| --- | --- | --- | --- | --- | --- | --- | --- | --- | --- | --- | --- |
| 21% | 38% | – | – | – | – | – | – | Nc1nc(NC2CCN(C(=O)C34CC5CC(CC(C5)C3)C4)CC2)sc1C(=O)c1c(F)cccc1F [Example R54] | 0% | 39 | – |
| 19% | 49% | – | – | – | – | – | – | CCCCCOc1ccc(C(=O)N2CCC(Nc3nc(N)c(C(=O)c4c(F)cccc4F)s3)CC2)cc1 [Example R14] | 0% | 46 | – |
| −5% | −4% | – | – | – | – | – | – | CC1(C(=O)N2CCC(Nc3nc(N)c(C(=O)c4c(F)cccc4F)s3)CC2)CCCCC1 [Example R99] | 5% | 49 | – |
| 24% | 32% | – | – | – | – | – | – | Nc1nc(NC2CCN(C(=O)c3c(F)cc(F)cc3F)CC2)sc1C(=O)c1c(F)cccc1F [Example R53] | 0% | 30 | – |
| 19% | 21% | – | – | – | – | – | – | Nc1nc(NC2CCN(C(=O)c3ccc(C(F)(F)F)cc3F)CC2)sc1C(=O)c1c(F)cccc1F [Example R35] | 0% | 49 | – |
| 60% | 65% | – | – | – | – | – | – | COc1ccccc1C(=O)N1CCC(Nc2nc(N)c(C(=O)c3c(F)cccc3F)s2)CC1 [Example R114] | 0% | 42 | – |
| 49% | 67% | – | – | – | – | – | – | COc1ccc(C(=O)N2CCC(Nc3nc(N)c(C(=O)c4c(F)cccc4F)s3)CC2)c(OC)c1 [Example R116] | 9% | 44 | – |
| 3% | 20% | – | – | – | – | – | – | Nc1nc(NC2CCN(C(=O)[C@H](Cc3ccccc3)NS(=O)(=O)c3ccc([N+](=O)[O-])cc3)CC2)sc1C(=O)c1c(F)cccc1F [Example R74] | 0.12% | 42 | – |
| −10% | −1% | – | – | – | – | – | – | CC1CC1C(=O)N1CCC(Nc2nc(N)c(C(=O)c3c(F)cccc3F)s2)CC1 (stereo not shown) [Example R93] | 0% | 42 | – |

More lines, now with the values behind:

| Compound | CDK2 % Inhibition at 0.03 μM (CDK2/Cyclin A) | CDK4 % Inhibition at 0.03 μM ([1]; at 0.03 μM) | Ki (CDK2/Cyclin A) | Ki [1] | IC50 (HCT-116 cell line; first HCT-116 column (c4)) | IC50 (HCT-116 cell line; second HCT-116 column (c5)) | CDK2 % Inhibition At 0.03 μM (CDK2/Cyclin A) | CDK4 % Inhibition at 0.03 μM ([1]; 0.03 μM compound, Table 2) | HCT-116 % Inhibition at 0.1 μM (HCT-116 cell line) | HCT-116 5 Inhibition at 0.25 μM (HCT-116 cell line) | HCT-116 % Inhibition at 0.25 μM (HCT-116 cell line) |
| --- | --- | --- | --- | --- | --- | --- | --- | --- | --- | --- | --- |
| Nc1nc(NC2CCN(S(=O)(=O)CCc3ccncc3)CC2)sc1C(=O)c1c(F)cccc1F [Example F27, 1-{4-Amino-2-[1-(2-pyridin-4-yl-ethanesulfonyl)-piperidin-4-ylamino]-thiazol-5-yl}-1-(2,6-difluoro-phenyl)-methanone] | – | – | 32 nM | 6.8 nM | 1000 nM | 5000 nM | – | – | – | – | – |
| Nc1nc(NC2CCN(S(=O)(=O)c3ccc(N4CCNCC4)nc3)CC2)sc1C(=O)c1c(F)cccc1F [Example G6, 1-{4-Amino-2-[1-(6-piperazin-1-yl-pyridine-3-sulfonyl)-piperidin-4-ylamino]-thiazol-5-yl}-1-(2,6-difluoro-phenyl)-methanone] | – | – | 0.69 nM | 0.54 nM | 210 nM | 3200 nM | – | – | – | – | – |
| Cc1cn(-c2ccc(S(=O)(=O)N3CCC(Nc4nc(N)c(C(=O)c5c(F)cccc5F)s4)CC3)cn2)cn1 [Example G27, 1-(4-Amino-2-{1-[6-(4-methyl-imidazol-1-yl)-pyridine-3-sulfonyl]-piperidin-4-ylamino}-thiazol-5-yl)-1-(2,6-difluoro-phenyl)-methanone Hydrochloride] | – | – | 0.41 nM | < 1 nM | 57 nM | 250 nM | – | – | – | – | – |
| Nc1nc(NC2CCN(C(=O)NCCc3ccc4c(c3)OCO4)CC2)sc1C(=O)c1c(F)cccc1F [Example O87] | – | – | – | – | – | – | 25% | 16% | – | – | 44% |
| CN(C)c1ccc(NC(=O)N2CCC(Nc3nc(N)c(C(=O)c4c(F)cccc4F)s3)CC2)cc1 [Example B2, 4-[4-Amino-5-(2,6-difluoro-benzoyl)-thiazol-2-ylamino]-piperidine-1-carboxylic Acid (4-Dimethylamino-phenyl)-amide] | – | – | 28 nM | 110 nM | 350 nM | 950 nM | – | – | – | – | – |
| Nc1nc(NC2CCN(C(=O)NC3CCCCC3)CC2)sc1C(=O)c1c(F)cccc1F [Example O34] | – | – | – | – | – | – | 30% | 6% | – | – | 22% |
